In general, Inhibition refers to the share of the control response that was lost under treatment.

The results in this text go back to patent US7998493B2, “Cosmetic or dermopharmaceutical compositions which are used to reduce bags and circles under the eyes” (Sederma SAS, priority 2002, dated 2011).

One data set deals with T1, H-Val-Trp.
T1 sequence: VW

For data set [1], the system named is Normal human keratinocytes and fibroblasts. In words: Cell viability by conventional MTT test. As to conditions: maximum concentration used (45 ppm). The data set is classed as cell-based. The protocol:
Normal human keratinocytes and fibroblasts are cultured in a conventional medium in the presence or absence of various concentrations (10-45 ppm) of peptide Pal-GQPR (SEQ ID NO:2). After 24 hours the cells are rinsed in the same medium without Pal-GQPR (SEQ ID NO:2) and, after being subjected to irradiation of 35 mJ/cm^2, the same cells are returned to the culture for 48 hours, without Pal-GQPR (SEQ ID NO:2) or in its presence in the same concentrations as during the initial culture period. Cellular IL-6 is then determined using a standard ELISA test kit.
In parallel with this, to make certain that the concentration reductions observed were not due to cell mortality induced by the peptide itself, viability of the cells was verified by the conventional MTT test.

For data set [2], the target named is Converting enzyme (EC 3.4.15.1) (Homo sapiens, UniProt P12821). In words: ACE-inhibition test (FAPGG decomposition, ΔOD at 340 nm; derived from Sigma Diagnostics method No. 305-UV). The data set is classed as biochemical. As to conditions: for ΔOD: 340 nm, mean of five tests. From the text:
The test is derived from Sigma Diagnostics method No. 305-UV.
Converting enzyme (EC 3.4.15.1) decomposes synthetic tripeptide FAPGG into FAP+glycylglycine. The change in optical density (ΔOD) at 340 nm is directly proportional to disappearance of the FAPGG, which allows a quantification of the converting enzyme activity.
The inhibiting effect of a compound is investigated according to the same principle, but in the presence of various concentrations of the test compounds.

Data set [3] deals with angiotensin converting enzyme (EC 3.4.15.1). In words: cell-based or functional assay.

Peptide text beside a SMILES is read from it. * marks the point of attachment. Palmitoyl = CCCCCCCCCCCCCCCC(=O)*

Chain of Converting enzyme (EC 3.4.15.1) (P12821 30-1306): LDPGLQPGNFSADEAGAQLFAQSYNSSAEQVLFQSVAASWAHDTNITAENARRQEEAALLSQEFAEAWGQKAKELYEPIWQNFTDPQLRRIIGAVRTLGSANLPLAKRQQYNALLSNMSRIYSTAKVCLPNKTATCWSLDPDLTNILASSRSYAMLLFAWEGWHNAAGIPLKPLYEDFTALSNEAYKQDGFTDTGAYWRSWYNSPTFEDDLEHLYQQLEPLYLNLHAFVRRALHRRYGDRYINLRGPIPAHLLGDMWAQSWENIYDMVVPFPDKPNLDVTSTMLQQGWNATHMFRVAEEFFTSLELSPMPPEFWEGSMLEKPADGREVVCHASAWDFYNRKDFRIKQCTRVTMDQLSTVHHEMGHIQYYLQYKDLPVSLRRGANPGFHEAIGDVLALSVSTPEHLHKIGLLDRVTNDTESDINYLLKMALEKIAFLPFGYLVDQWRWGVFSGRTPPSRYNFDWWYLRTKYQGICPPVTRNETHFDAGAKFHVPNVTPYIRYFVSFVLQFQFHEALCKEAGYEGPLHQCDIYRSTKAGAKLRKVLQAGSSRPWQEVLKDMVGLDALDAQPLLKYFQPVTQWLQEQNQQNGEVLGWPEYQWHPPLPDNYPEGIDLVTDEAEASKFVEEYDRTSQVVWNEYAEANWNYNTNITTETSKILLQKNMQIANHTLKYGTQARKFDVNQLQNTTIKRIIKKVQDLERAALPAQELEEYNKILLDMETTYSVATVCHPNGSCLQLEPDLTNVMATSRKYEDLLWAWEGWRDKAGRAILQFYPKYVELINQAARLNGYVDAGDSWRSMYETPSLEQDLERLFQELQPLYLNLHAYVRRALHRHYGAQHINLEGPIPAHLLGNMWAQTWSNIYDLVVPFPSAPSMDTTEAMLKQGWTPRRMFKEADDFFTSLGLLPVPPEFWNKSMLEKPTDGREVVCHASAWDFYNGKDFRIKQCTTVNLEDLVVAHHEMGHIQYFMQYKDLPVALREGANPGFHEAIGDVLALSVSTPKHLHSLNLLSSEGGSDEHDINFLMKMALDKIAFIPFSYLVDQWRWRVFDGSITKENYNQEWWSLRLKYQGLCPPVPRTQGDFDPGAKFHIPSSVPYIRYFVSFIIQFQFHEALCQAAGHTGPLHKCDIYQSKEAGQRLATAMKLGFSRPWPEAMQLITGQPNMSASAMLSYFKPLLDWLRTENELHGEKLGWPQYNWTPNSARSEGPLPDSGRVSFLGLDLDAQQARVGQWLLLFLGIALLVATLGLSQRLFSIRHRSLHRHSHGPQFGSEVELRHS

With “angiotensin converting enzyme (EC 3.4.15.1)”, in the data set on H-Val-Trp, the ΔOD (340 nm, FAPGG hydrolysis by converting enzyme), peptide at 10 ppm is 0.08 ΔOD and the ΔOD (340 nm, FAPGG hydrolysis by converting enzyme), peptide at 50 ppm was 0.018 ΔOD.

Consider `CCCCCCCCCCCCCCCC(=O)NCC(=O)N[C@@H](CCC(N)=O)C(=O)N1CCC[C@H]1C(=O)N[C@@H](CCCNC(=N)N)C(=O)O` [N-Palmitoyl-Gly-Gln-Pro-Arg] (Palmitoyl-GQPR-OH), for which the “Cytotoxic effect (cell viability, MTT)” value in data set [1] is reported as “does not exert any cytotoxic effect”.

As to H-Val-Trp, in data set [2] (peptide 10 ppm), the Inhibition amounted to 27.3% and the ΔOD is listed as 0.080. In data set [2] (peptide 50 ppm), this compound came in with an Inhibition of 83.4% and a ΔOD of 0.018.

In data set [3], H-Val-Trp (peptide) had an Inhibition (converting enzyme activity, FAPGG hydrolysis, ΔOD at 340 nm), peptide at 10 ppm of 27.3% and an Inhibition (converting enzyme activity, FAPGG hydrolysis, ΔOD at 340 nm), peptide at 50 ppm of 83.4%.
